Test results reported in article PMC7464159, “Triple Negative Breast Cancer and Breast Epithelial Cells Differentially Reprogram Glucose and Lipid Metabolism upon Treatment with Triterpenic Acids” (Biomolecules, 2020).

Tested on: MDA-MB-231 cells
Assay: 1H NMR metabolomics of polar (aqueous) cell extracts
Type: cell-based, human
Description: MDA-MB-231 and MCF-10A cells were seeded in 10-cm-diameter Petri dishes at a density of 6 × 10^5 cells/mL (10 mL per dish) and cultured for 24 h at 37 °C. […] Vehicle solvent control cells received DMSO (0.10% v/v). Samples were collected immediately after 48 h incubation or, to assess cellular recovery, medium was replaced with fresh growth medium (without TAs), and cells were incubated for additional 24 h before collection (48 + 24 h samples). Four independent assays were performed.
After incubation, culture medium was collected and centrifuged (1000× g, 5 min) and the supernatant stored at −80 °C until analysis. Culture medium without cells was placed under the same conditions and collected. Cell extraction was performed as described by Carrola et al.. Briefly, cells were washed four times with PBS and extracted with a mixture of methanol:chloroform:water (1:1:0.7). The resulting polar and organic phases were collected and then dried under vacuum or under a stream of nitrogen gas, respectively. All samples were stored at −80 °C and, at the time of analysis, dried polar extracts were reconstituted in 600 µL of deuterated phosphate buffer (100 mM, pH 7.4) containing 0.1 mM TSP-d4, while organic extracts were reconstituted in deuterated chloroform containing 0.03% TMS. Regarding medium samples, 540 μL were mixed with 60 μL of D2O containing 0.25% TSP-d4. Prior to analysis, 550 μL of each sample were transferred to 5 mm NMR tubes.
^1H NMR spectra of all samples were acquired on a Bruker Avance III HD 500 NMR spectrometer (University of Aveiro, Portuguese NMR Network) operating at 500.13 MHz for ^1H observation equipped with a 5 mm TXI probe. Standard 1D spectra (Bruker pulse programs ‘noesypr1d’, with water suppression, for medium samples and aqueous extracts, and ‘zg’ for organic extracts) were recorded with a 7002.8 Hz spectral width, 32 k data points, a 2 s relaxation delay and 512 scans. Spectral processing comprised exponential multiplication with 0.3 Hz line broadening, zero filling to 64 k data points, manual phasing, baseline correction, and chemical shift calibration to the TSP or TMS signal at 0 ppm. 2D ^1H-^1H total correlation (TOCSY) spectra, ^1H-^13C heteronuclear single quantum correlation (HSQC) spectra and J-resolved spectra were also registered for selected samples to assist spectral assignment. Metabolites were identified with the support of 2D spectra and the spectral reference databases BBIOREFCODE-2-0-0 (Bruker Biospin, Rheinstetten, Germany) and HMDB [28]. Selected signals were then integrated using the AmixViewer software […] (version 3.9.14, Bruker BioSpin, Rheinstetten, Germany) and normalized by the total spectral area. The magnitude of each metabolite change was assessed through the percentage of variation (and its respective error) in exposed samples relatively to controls, and through the effect size (ES) adjusted for small sample numbers (and respective standard error). Metabolite variations with absolute ES greater than 0.8 were expressed in a heatmap, colored as a function of the percentage of variation, employing the R statistical software.

## C=C(C)[C@@H]1CC[C@]2(C(=O)O)CC[C@]3(C)[C@H](CC[C@@H]4[C@@]5(C)CC[C@H](O)C(C)(C)[C@@H]5CC[C@]43C)[C@@H]12 [BA, betulinic acid]
BA 5µM, 48h
  ATP %var: 0%
  Acetate %var: 0%
  Ala %var: -12.64%
  Asp %var: -30.52%
  Choline %var: 10.16%
  Citrate %var: -40.97%
  Cr %var: 22.45%
  Fumarate %var: -35.42%
  GPC %var: 13.50%
  GSH %var: -15.77%
  Gln %var: -28.49%
  Glu %var: -24.61%
  Gly %var: 0%
  Ile %var: 14.68%
  Lactate %var: 53.08%
  Leu %var: 15.91%
  PC %var: -24.96%
  PCr %var: -19.36%
  Phe %var: 6.80%
  Pro %var: 16.73%
  Tau %var: 6.09%
  Tyr %var: 8.11%
  Val %var: 18.46%
  myo-Ino %var: -8.23%
BA 5µM, 48h+24h
  ATP %var: -7.54%
  Acetate %var: 0%
  Ala %var: -7.44%
  Asp %var: 0%
  Choline %var: 0%
  Citrate %var: -12.45%
  Cr %var: 0%
  Fumarate %var: 0%
  GPC %var: 0%
  GSH %var: 0%
  Gln %var: 0%
  Glu %var: 0%
  Gly %var: -8.57%
  Ile %var: 0%
  Lactate %var: 0%
  Leu %var: 0%
  PC %var: 0%
  PCr %var: 0%
  Phe %var: 0%
  Pro %var: 0%
  Tau %var: 0%
  Tyr %var: 0%
  Val %var: 0%
  myo-Ino %var: -6.52%
BA 15µM, 48h
  ATP %var: 0%
  Acetate %var: 21.07%
  Ala %var: -10.34%
  Asp %var: -12.45%
  Choline %var: 12.46%
  Citrate %var: -51.74%
  Cr %var: 18.99%
  Fumarate %var: -37.50%
  GPC %var: 26.27%
  GSH %var: -25.87%
  Gln %var: -20.94%
  Glu %var: -37.41%
  Gly %var: -9.59%
  Ile %var: 30.97%
  Lactate %var: 55.73%
  Leu %var: 33.86%
  PC %var: -38.62%
  PCr %var: -22.44%
  Phe %var: 24.06%
  Pro %var: 21.93%
  Tau %var: 7.79%
  Tyr %var: 28.53%
  Val %var: 38.79%
  myo-Ino %var: -18.58%
  number of intracellular polar metabolites consistently altered: 23
BA 15µM, 48h+24h
  ATP %var: -15.36%
  Acetate %var: 22.70%
  Ala %var: -12.62%
  Asp %var: 0%
  Choline %var: 0%
  Citrate %var: -19.78%
  Cr %var: 0%
  Fumarate %var: 0%
  GPC %var: 0%
  GSH %var: 0%
  Gln %var: -5.26%
  Glu %var: -11.90%
  Gly %var: -31.75%
  Ile %var: 0%
  Lactate %var: 0%
  Leu %var: 0%
  PC %var: 0%
  PCr %var: -14.19%
  Phe %var: 0%
  Pro %var: 0%
  Tau %var: 0%
  Tyr %var: 0%
  Val %var: 0%
  myo-Ino %var: -17.84%
